This note sets out measurements from patent US9975906B2, “Tricyclic heterocycle derivatives having HIV replication inhibitory effect” (Shionogi & Co., Ltd., priority 2014, dated 2018).

Some results are limits rather than exact numbers.

In one series the test system is HIV (HTLV-IIIB strain). Nature of the series: HIV Replication Inhibition Assay. The series is classed as cell-based. As to conditions: Human immunodeficiency virus 1, MT4, 96 h, MT-4 cells, cultured four days, MTT, concentration at which cell cytotoxicity by virus is inhibited 50%. As for the experimental part:
HIV (HTLV-IIIB strain) persistent infected human T cell strain Molt-4 clone 8 was cultured in 10% Fetal Bovine Serum-containing RPMI-1640 medium and the supernatant was filtered, then the virus titer was measured and the solution was stored at −80° C. Each anti-human immunodeficiency virus active substance was diluted with the above cultured medium to the designated concentration, which was dispensed into 96 well micro plate by 50 μL. Next, a MT-4 cell suspended liquid was dispensed by 100 μL (2.5×10^4 cells), then the above HIV-containing supernatant diluted with the above cultured medium was added thereto by 50 μl (60 pfu (plaque forming unit)).
The obtained mixture was cultured at 37° C. in CO2 incubator for four days, then 3-(4,5-dimethylthiazole-2-yl)-2,5-diphenyltetrazolynium bromide (MTT) 5 mg/mL in PBS was added to each well by 30 μL, followed by 1 hr-cultivation. In this step, as formazan was precipitated by reduction of MTT in living cells, the cell supernatant was removed from all was by 150 μL, then a 150 μL of solution (10% Triton X-100 and 0.4% (v/v)-HCl containing isopropanol) was added thereto, followed by shaking with a plate mixer, to elute formazan. The formazan was measured with a microreader at OD: 560 nm and 690 nm (reference wavelength) and the result was compared with the reference. EC50 means the compound concentration at which cell cytotoxicity by virus is inhibited 50%.

Another series in a line: Solubility Test. The class given is physicochemical. As to conditions: fassgf or other biorelevant, kinetic from dmso stock; 1% DMSO addition, artificial intestinal juice pH 6.8, 16 hours at 25° C. How it is done: The solubility of the compound of the present invention was determined under 1% DMSO addition conditions. A 10 mmol/L solution of the compound was prepared with DMSO, and 6 μL of the solution was added to 594 μL of an artificial intestinal juice (: water and a 118 mL solution of 0.2 mol/L NaOH reagent are added to 250 mL of 0.2 mol/L potassium dihydrogen phosphate reagent to reach 1000 mL) with a pH of 6.8. The mixture was left standing for 16 hours at 25° C., and the mixture was vacuum-filtered. The filtrate was two-fold diluted with methanol/water=1/1(v/v), and the compound concentration in the filtrate was measured with HPLC or LC/MS/MS by the absolute calibration method.

The next series in a line: BA Test. The series is classed as in vivo. As to conditions: plasma; oral vs intravenous administration, from AUCs, mouse or SD rats. As for the experimental part: Materials and methods for studies an oral absorption (1) Animal: mouse or SD rats are used. (2) Breeding conditions: mouse or SD rats were allowed to freely take solid feed and sterilized tap water. (3) Dose and grouping: orally or intravenously administered at a predetermined dose; grouping is as follows (Dose depends on the compound) Oral administration: 1 to 30 mg/kg (n=2 to 3) Intravenous administration: 0.5 to 10 mg/kg (n=2 to 3) (4) Preparation of dosing solution: for oral administration, in a solution or a suspension state; for intravenous administration, in a solubilized state. (5) Administration method: in oral administration, forcedly administer into ventriculus with oralprobe; in intravenous administration, administer from caudal vein with a needle-equipped syringe. (6) Evaluation items: blood is collected over time, and the plasma concentration of drug is measured by LC/MS/MS. (7) Statistical analysis: regarding the transition of the plasma concentration, the area under the plasma concentration-time curve (AUC) is calculated by non-linear least squares program WinNonlin (Registered trademark), and the bioavailability (BA) is calculated from the AUCs of the oral administration group and intravenous administration group. (Result) Compound No. I-30: 45.2%

The target in series [1] is T1, human ether-a-go-go related gene (hERG) channel (Homo sapiens, UniProt Q12809).
T1 construct: expressed in transfected cells; host or cells: HEK293
The series can be described thus: hERG Test. The class given is cell-based. As to conditions: compound concentration 5 μmol/L, HEK293 cells expressing hERG, patch clamp. The text has this: For the purpose of assessing risk of an electrocardiogram QT interval prolongation, effects on delayed rectifier K+ current (IKr), which plays an important role in the ventricular repolarization process of the compound of the present invention, was studied using HEK293 cells expressing human ether-a-go-go related gene (hERG) channel.
After a cell was retained at a membrane potential of −80 mV by whole cell patch clamp method using an automated patch clamp system (PatchXpress 7000A, Axon Instruments Inc.), IKr induced by depolarization pulse stimulation at +40 mV for 2 seconds and, further, repolarization pulse stimulation at −50 mV for 2 seconds was recorded. […] From the recording IKr, an absolute value of the tail peak current was measured based on the current value at the resting membrane potential using an analysis software (DataXpress ver. 1, Molecular Devices Corporation). Further, the inhibition relative to the tail peak current before application of the test substance was calculated, and compared with the vehicle-applied group (0.1% dimethyl sulfoxide solution) to access influence of the test substance on IKr. […]
Background: hERG is a cardiac potassium channel; its block is linked to QT prolongation.

T1 sequence (Q12809 whole entry): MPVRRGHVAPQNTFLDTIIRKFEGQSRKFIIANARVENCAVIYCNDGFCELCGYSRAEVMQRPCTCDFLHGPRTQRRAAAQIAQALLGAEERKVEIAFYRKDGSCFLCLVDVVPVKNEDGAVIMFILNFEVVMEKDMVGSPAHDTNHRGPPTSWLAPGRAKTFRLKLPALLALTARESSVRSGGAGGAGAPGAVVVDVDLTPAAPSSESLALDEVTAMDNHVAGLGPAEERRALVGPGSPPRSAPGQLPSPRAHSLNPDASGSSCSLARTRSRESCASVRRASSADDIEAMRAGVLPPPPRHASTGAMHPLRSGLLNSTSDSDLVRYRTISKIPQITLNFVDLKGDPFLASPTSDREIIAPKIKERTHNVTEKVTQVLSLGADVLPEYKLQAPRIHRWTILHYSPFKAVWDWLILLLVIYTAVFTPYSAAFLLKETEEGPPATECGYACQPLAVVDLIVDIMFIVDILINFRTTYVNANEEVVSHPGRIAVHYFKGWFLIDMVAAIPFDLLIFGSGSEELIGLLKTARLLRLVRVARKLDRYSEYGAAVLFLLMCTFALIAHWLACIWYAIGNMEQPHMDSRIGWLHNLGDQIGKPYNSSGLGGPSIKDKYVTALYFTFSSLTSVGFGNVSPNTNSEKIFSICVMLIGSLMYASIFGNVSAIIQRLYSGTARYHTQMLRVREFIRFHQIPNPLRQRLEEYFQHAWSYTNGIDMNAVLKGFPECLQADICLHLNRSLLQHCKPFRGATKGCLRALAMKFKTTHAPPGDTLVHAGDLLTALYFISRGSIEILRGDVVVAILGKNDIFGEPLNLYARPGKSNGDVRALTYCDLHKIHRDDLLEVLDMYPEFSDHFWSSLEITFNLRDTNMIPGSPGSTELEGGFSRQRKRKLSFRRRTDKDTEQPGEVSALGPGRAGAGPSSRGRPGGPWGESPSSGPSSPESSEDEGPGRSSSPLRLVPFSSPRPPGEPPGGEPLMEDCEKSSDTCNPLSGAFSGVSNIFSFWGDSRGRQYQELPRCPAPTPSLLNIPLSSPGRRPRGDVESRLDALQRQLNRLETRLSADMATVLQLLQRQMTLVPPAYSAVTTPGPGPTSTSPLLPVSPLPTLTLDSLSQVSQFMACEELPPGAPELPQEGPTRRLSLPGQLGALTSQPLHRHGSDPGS

A word on the EC50: it is the concentration needed to bring the measured effect to its halfway point. Compound `Cc1c([C@H](OC(C)(C)C)C(=O)O)c(-c2ccc(Cl)cc2)c2cc(-c3ccnc(-c4ccc5c(cnn5C)c4)c3)n3c2c1N(S(C)(=O)=O)CC3` [Compound I-016] showed an EC50 in the series on HIV (HTLV-IIIB strain) of 3.9 nM. For the compound `Cc1c([C@H](OC(C)(C)C)C(=O)O)c(C2=CCC(C)(C)CC2)c2cc(-c3ccnc(-c4ccc5c(cnn5C)c4)c3)n3c2c1N(S(C)(=O)=O)CC3` [Compound I-015], the EC50 with HIV (HTLV-IIIB strain) came out at 4 nM.

Take `Cc1ccc(-c2c([C@H](OC(C)(C)C)C(=O)O)c(C)c3c4c2cc(-c2nnc(-c5ccc6c(cnn6C)c5)o2)n4CCN3C)cc1` [Compound I-037]: the EC50 in the series on HIV (HTLV-IIIB strain) amounted to 0.4 nM. `Cc1ccc(-c2c(C(OC(C)(C)C)C(=O)O)c(C)c3c4c2cc(-c2ccnc(N5CCN(C(C)C)CC5)n2)n4CCN3S(C)(=O)=O)cc1` (stereo not shown) [Compound I-009] showed an EC50 in the series on HIV (HTLV-IIIB strain) of 32 nM. In turn, `CC(=O)N1CCn2c(-c3ccnc(-c4ccc5c(cnn5C)c4)c3)cc3c(-c4ccc(Cl)cc4)c([C@H](OC(C)(C)C)C(=O)O)c(C)c1c32` [Compound I-028] displayed an EC50 with HIV (HTLV-IIIB strain) of 3.3 nM.

As to `Cc1ccc(-c2c(C(OC(C)(C)C)C(=O)O)c(C)c3c4c2cc(-c2ccnc(-c5ccc6c(cnn6C)c5)c2)n4CCN3S(C)(=O)=O)cc1` (stereo not shown) [Compound I-008], in the series with HIV (HTLV-IIIB strain), the EC50 was determined as 5.9 nM. On to `Cc1ccc(-c2c([C@H](OC(C)(C)C)C(=O)O)c(C)c3c4c2cc(-c2nnc(C)o2)n4CCN3C)cc1` [Compound I-041], for which the EC50 in the series with HIV (HTLV-IIIB strain) is 4.6 nM. On the same count and under the same terms, with `Cc1ccc(-c2c([C@H](OC(C)(C)C)C(=O)O)c(C)c3c4c2cc(-c2ccnc(-c5ccc6c(cnn6C)c5)c2)n4CC(C)N3S(C)(=O)=O)cc1` (stereo partly shown) [Compound I-023] the figure was 0.82 nM.

Regarding `CC(=O)N1CCn2c(-c3ccnc(-c4ccc5c(cnn5C)c4)c3)cc3c(-c4cc(F)c5c(c4C)CCCO5)c([C@H](OC(C)(C)C)C(=O)O)c(C)c1c32` [Compound I-018], the midpoint of the response with HIV (HTLV-IIIB strain), the EC50, lay at 1.1 nM. A word on the solubility: it is the concentration that dissolves in the medium under given conditions. As to `Cc1ccc(-c2c([C@H](OC(C)(C)C)C(=O)O)c(C)c3c4c2cc(-c2ccnc(N5CCN(C(C)C)CC5)c2)n4CCN3S(C)(=O)=O)cc1` [Compound I-017], it took 9.1 nM to reach a half-maximal effect with HIV (HTLV-IIIB strain) (EC50). Besides, in “Solubility Test”, the solubility at 16 h is above 50 µM. In the case of `Cc1c(-c2c([C@H](OC(C)(C)C)C(=O)O)c(C)c3c4c2cc(-c2ccnc(-c5ccc6c(cnn6C)c5)c2)n4CCN3S(C)(=O)=O)cc(F)c2c1CCCO2` [Compound I-014], the concentration giving a half-maximal response (EC50) in the series on HIV (HTLV-IIIB strain) turned out to be 1.3 nM.

For the compound `CC(=O)N1CCn2c(-c3ccnc(-c4ccc5c(cnn5C)c4)c3)cc3c(-c4ccc(C)cc4)c(C(OC(C)(C)C)C(=O)O)c(C)c1c32` (stereo not shown) [Compound I-012], the response in the series with HIV (HTLV-IIIB strain) was half-maximal at 3.7 nM (EC50). For `CC(=O)N1CCn2c(-c3ccnc(-c4ccc5c(cnn5C)c4)c3)cc3c(C4=CCC(C)(C)CC4)c([C@H](OC(C)(C)C)C(=O)O)c(C)c1c32` [Compound I-026], the 50% effective concentration (EC50) with HIV (HTLV-IIIB strain) came to 3.7 nM.

For `Cc1ccc(-c2c([C@H](OC(C)(C)C)C(=O)O)c(C)c3c4c2cc(C(=O)N(C)C)n4CCN3C)cc1` [Compound I-040], the EC50 in the series on HIV (HTLV-IIIB strain) amounted to 67 nM.

Consider `Cc1c(-c2c(C(OC(C)(C)C)C(=O)O)c(C)c3c4c2c(C)cn4CCN3S(C)(=O)=O)ccc2c1CCCO2` (single isomer, unassigned) [Compound I-006], for which, in the series with HIV (HTLV-IIIB strain), the EC50 worked out at 14 nM.

On to `Cc1ccc(-c2c([C@H](OC(C)(C)C)C(=O)O)c(C)c3c4c2cc(-c2ccnc(-c5ccc6c(cnn6C)c5)c2)n4CS(=O)(=O)N3C)cc1` [Compound I-029], for which, in the series on HIV (HTLV-IIIB strain), the EC50 came to 2.4 nM. `CC(=O)N1CCn2c(-c3ccnc(-c4ccc5c(cnn5C)c4)c3)cc3c(-c4ccc(C)cc4)c([C@H](OC(C)(C)C)C(=O)O)c(C)c1c32` [Compound I-013] came in with an EC50 in the series with HIV (HTLV-IIIB strain) of 3.4 nM. The same measure, in the same setting: for `Cc1c(-c2c([C@H](OC(C)(C)C)C(=O)O)c(C)c3c4c2cc(-c2ccnc(-c5ccc6c(cnn6C)c5)c2)n4CCN3S(C)(=O)=O)ccc2c1NCCO2` [Compound I-022] the value was 4 nM; for `Cc1ccc(-c2c([C@H](OC(C)(C)C)C(=O)O)c(C)c3c4c2cc(C(N)=O)n4CCN3C)cc1` [Compound I-044], 44 nM; for `Cc1ccc(-c2c([C@H](OC(C)(C)C)C(=O)O)c(C)c3c4c2cc(C(=O)NCCC(C)(C)C)n4CCN3S(C)(=O)=O)cc1` [Compound I-031], 2.9 nM. `Cc1ccc(-c2c([C@H](OC(C)(C)C)C(=O)O)c(C)c3c4c2cc(-c2ccnc(-c5ccc6c(cnn6C)c5)c2)n4CC(=O)N3C)cc1` [Compound I-020] came in with an EC50 with HIV (HTLV-IIIB strain) of 3.6 nM. For the compound `Cc1ccc(-c2c([C@H](OC(C)(C)C)C(=O)O)c(C)c3c4c2cc(-c2ccnc(-c5ccc6c(cnn6C)c5)c2)n4CC(=O)N3)cc1` [Compound I-019], in the series with HIV (HTLV-IIIB strain), the EC50 was 6 nM. In turn, `Cc1ccc(-c2c([C@H](OC(C)(C)C)C(=O)O)c(C)c3c4c2cc(-c2ccnc(-c5ccc6c(cnn6C)c5)c2)n4CCN3S(C)(=O)=O)cc1` [Compound I-011] returned an EC50 with HIV (HTLV-IIIB strain) of 2.3 nM. Compound `Cc1ccc(-c2c([C@H](OC(C)(C)C)C(=O)O)c(C)c3c4c2cc(-c2ccnc(-c5ccc6c(cnn6C)c5)c2)n4CCN3C(=O)CN(C)C)cc1` [Compound I-021] yielded an EC50 in the series on HIV (HTLV-IIIB strain) of 3.8 nM.

For the compound `CC(=O)N1CCn2c(-c3ccnc(-c4ccc5c(cnn5C)c4)c3)cc3c(-c4ccc5c(c4C)NCCO5)c([C@H](OC(C)(C)C)C(=O)O)c(C)c1c32` [Compound I-027], in the series on HIV (HTLV-IIIB strain), the EC50 was found to be 1.7 nM. Broadly, the bioavailability is dose-corrected exposure relative to a reference, in per cent. The low end stands for little systemic uptake, the high end for much systemic uptake. As for `Cc1ccc(-c2c([C@H](OC(C)(C)C)C(=O)O)c(C)c3c4c2cc(-c2ccnc(-c5ccc6c(cnn6C)c5)c2)n4CCN3C)cc1` [Compound I-030], in the series on HIV (HTLV-IIIB strain), the EC50 worked out at 1.9 nM. The bioavailability in the series “BA Test” came to 45.2%. Besides, the “inhibition ratio (IKr tail peak current)” value in series [1] is listed as 11.7%. As for `Cc1ccc(-c2c([C@H](OC(C)(C)C)C(=O)O)c(C)c3c4c2cc(C(=O)NCCC(C)(C)C)n4CCN3C)cc1` [Compound I-035], a half-maximal effect in the series with HIV (HTLV-IIIB strain) (EC50) was put at 5.2 nM. `Cc1ccc(-c2c(C(OC(C)(C)C)C(=O)O)c(C)c3c4c2cc(-c2ccnc(Cl)c2)n4CCN3S(C)(=O)=O)cc1` (stereo not shown) [Compound I-010] came in with an EC50 with HIV (HTLV-IIIB strain) of 16 nM.

In the case of `Cc1ccc(-c2c([C@H](OC(C)(C)C)C(=O)O)c(C)c3c4c2cc(C(=O)N2CCC(c5ccccc5)CC2)n4CCN3S(C)(=O)=O)cc1` [Compound I-024], in the series with HIV (HTLV-IIIB strain), the EC50 was 4.2 nM. Take `Cc1ccc(-c2c([C@H](OC(C)(C)C)C(=O)O)c(C)c3c4c2cc(-c2ccnc(-c5ccc6c(cnn6C)c5)c2)n4CS(=O)(=O)N3)cc1` [Compound I-025]: in the series on HIV (HTLV-IIIB strain), the EC50 came to 89 nM.

In the case of `Cc1ccc(-c2c([C@H](OC(C)(C)C)C(=O)O)c(C)c3c4c2cc(C(=O)NCc2ccccc2)n4CCN3S(C)(=O)=O)cc1` [Compound I-032], in the series with HIV (HTLV-IIIB strain), the response was half-maximal at 5.2 nM (EC50).
